Laboratory results: the supplement of paper PMC10307832

Columns and labels:
Assay in all cases: relative viability (nuclei count vs DMSO), 5 days (fraction); higher = more cells survive
BEN = system: BEN
Procedure, shortened: (§1)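 For relative viability, nuclei counts in treated wells were divided by those in vehicle wells. Lung cancer cell lines had been pin-tool dosed in 1536-well plates the day after seeding and cultured for 5 days, then fixed and stained in one step (final 0.05% Triton X-100, 1% formaldehyde, 1 ug/ml Hoechst) and imaged at 4×. Doses were one drug alone or a fixed anchor-drug dose plus five library-drug doses (not always all listed) in √10 steps, and values are duplicate-plate medians.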

NCI-H358 = system: NCI-H358
Procedure, shortened: as §1

HCC-15 = system: HCC-15
Procedure, shortened: as §1

COR-L 105 = system: COR-L 105
Procedure, shortened: as §1

201T = system: 201T
Procedure, shortened: as §1

NCI-H1563 = system: NCI-H1563
Procedure, shortened: as §1

PC-3 [JPC-3] = system: PC-3 [JPC-3]
Procedure, shortened: as §1

SW 900 = system: SW 900
Procedure, shortened: as §1

EMC-BAC-2 = system: EMC-BAC-2
Procedure, shortened: as §1

CAL-12T = system: CAL-12T
Procedure, shortened: as §1

NCI-H520 = system: NCI-H520
Procedure, shortened: as §1

With CCNC(=O)c1noc(-c2cc(C(C)C)c(O)cc2O)c1-c1ccc(CN2CCOCC2)cc1 [Luminespib] + COc1cc2c(Oc3ccc(NC(=O)C4(C(=O)Nc5ccc(F)cc5)CC4)cc3F)ccnc2cc1OCCCN1CCOCC1 [Foretinib] (partner 0.25 µM) as the compound, how does the relative viability (BEN; first compound 0.06325 µM) read?
The relative viability was 0.531.

What about the relative viability (BEN; first compound 0.2 µM) of the same compound?
Its relative viability is 0.222.

What about the relative viability (NCI-H358; first compound 0.002 µM) of the same compound?
The relative viability was 0.69.

And the relative viability (NCI-H358; first compound 0.006325 µM)?
Its relative viability is 0.705.

What about the relative viability (NCI-H358; first compound 0.02 µM) of the same compound?
Its relative viability is 0.631.

What about the relative viability (NCI-H358; first compound 0.06325 µM) of the same compound?
The relative viability was 0.06.

What about the relative viability (NCI-H358; first compound 0.2 µM) of the same compound?
The relative viability was 0.0569.

And the relative viability (HCC-15; first compound 0.002 µM)?
Its relative viability is 1.09.

And the relative viability (HCC-15; first compound 0.006325 µM)?
Its relative viability is 0.971.

And the relative viability (HCC-15; first compound 0.02 µM)?
Its relative viability is 1.07.

What about the relative viability (HCC-15; first compound 0.06325 µM) of the same compound?
Its relative viability is 0.151.

And the relative viability (HCC-15; first compound 0.2 µM)?
Its relative viability is 0.126.

And the relative viability (COR-L 105; first compound 0.002 µM)?
The relative viability was 0.885.

And the relative viability (COR-L 105; first compound 0.006325 µM)?
Its relative viability is 1.04.

What about the relative viability (COR-L 105; first compound 0.02 µM) of the same compound?
Its relative viability is 1.07.

And the relative viability (COR-L 105; first compound 0.06325 µM)?
The relative viability was 0.436.

And the relative viability (COR-L 105; first compound 0.2 µM)?
Its relative viability is 0.273.

What about the relative viability (201T; first compound 0.002 µM) of the same compound?
The relative viability was 1.06.

And the relative viability (201T; first compound 0.006325 µM)?
Its relative viability is 1.07.

And the relative viability (201T; first compound 0.02 µM)?
Its relative viability is 1.08.

What about the relative viability (201T; first compound 0.06325 µM) of the same compound?
Its relative viability is 0.173.

What about the relative viability (201T; first compound 0.2 µM) of the same compound?
Its relative viability is 0.159.

And the relative viability (NCI-H1563; first compound 0.002 µM)?
The relative viability was 1.01.

What about the relative viability (NCI-H1563; first compound 0.006325 µM) of the same compound?
Its relative viability is 0.831.

What about the relative viability (NCI-H1563; first compound 0.02 µM) of the same compound?
Its relative viability is 0.875.

What about the relative viability (NCI-H1563; first compound 0.06325 µM) of the same compound?
Its relative viability is 0.452.

And the relative viability (NCI-H1563; first compound 0.2 µM)?
Its relative viability is 0.537.

What about the relative viability (PC-3 [JPC-3]; first compound 0.002 µM) of the same compound?
Its relative viability is 1.01.

And the relative viability (PC-3 [JPC-3]; first compound 0.006325 µM)?
The relative viability was 0.938.

What about the relative viability (PC-3 [JPC-3]; first compound 0.02 µM) of the same compound?
The relative viability was 1.18.

And the relative viability (PC-3 [JPC-3]; first compound 0.06325 µM)?
The relative viability was 0.728.

And the relative viability (PC-3 [JPC-3]; first compound 0.2 µM)?
The relative viability was 0.259.

What about the relative viability (SW 900; first compound 0.002 µM) of the same compound?
The relative viability was 0.966.

What about the relative viability (SW 900; first compound 0.006325 µM) of the same compound?
The relative viability was 0.742.

And the relative viability (SW 900; first compound 0.02 µM)?
The relative viability was 0.813.

What about the relative viability (SW 900; first compound 0.06325 µM) of the same compound?
The relative viability was 0.134.

And the relative viability (SW 900; first compound 0.2 µM)?
Its relative viability is 0.117.

What about the relative viability (EMC-BAC-2; first compound 0.002 µM) of the same compound?
Its relative viability is 1.03.

And the relative viability (EMC-BAC-2; first compound 0.006325 µM)?
Its relative viability is 0.936.

What about the relative viability (EMC-BAC-2; first compound 0.02 µM) of the same compound?
The relative viability was 0.942.

What about the relative viability (EMC-BAC-2; first compound 0.06325 µM) of the same compound?
The relative viability was 0.915.

What about the relative viability (EMC-BAC-2; first compound 0.2 µM) of the same compound?
Its relative viability is 0.56.

What about the relative viability (CAL-12T; first compound 0.002 µM) of the same compound?
The relative viability was 1.25.

What about the relative viability (CAL-12T; first compound 0.006325 µM) of the same compound?
Its relative viability is 1.15.

What about the relative viability (CAL-12T; first compound 0.02 µM) of the same compound?
The relative viability was 0.824.

What about the relative viability (CAL-12T; first compound 0.06325 µM) of the same compound?
The relative viability was 0.127.

And the relative viability (CAL-12T; first compound 0.2 µM)?
Its relative viability is 0.128.

And the relative viability (NCI-H520; first compound 0.002 µM)?
Its relative viability is 1.09.

And the relative viability (NCI-H520; first compound 0.006325 µM)?
Its relative viability is 0.659.

And the relative viability (NCI-H520; first compound 0.02 µM)?
The relative viability was 0.651.

And the relative viability (NCI-H520; first compound 0.06325 µM)?
Its relative viability is 0.147.

And the relative viability (NCI-H520; first compound 0.2 µM)?
The relative viability was 0.162.
